In patent publication US20260263517A1, “THERAPEUTIC METHODS WITH TARGET-LINKED SMALL MOLECULES AND ANTI-TARGET CAR T CELLS” (Seattle Children's Hospital (dba Seattle Children's …, priority 2022, published 2026):
Entries after “also recorded” stand apart in the source; their conditions may differ.

Legend:
HOS-FRα tumors = assay: subcutaneous HOS-FRα osteosarcoma xenograft, E2 CAR-T cells plus EC17; type: in vivo
Excerpt: A dosing regimen is shown in FIG. 21 which includes administration of about 5 million E2 CAR T cells at day −3; administration of EC17 at days 0, 3, 7, 14, 17, 21, 28, 31 and 35. Sequential escalating doses of EC17 will be administered under the following rules: If no CRS or neurotoxicity, advance through EC17 dose escalation as planned. If CRS grade≤2, administer all subsequent EC17 doses at die Sequence level that provoked the non-serious CRS in the stone cycle. If CRS grade>2, cancel further EC17 doses in the current Cycle, and commence all subsequent Cycles at the next highest Sequence below that which provoked the severe CRS (sCRS).
HOS-FRα (i.e. HOS-143b-LV-FRα) is a subclone of HOS-143B (ATCC CRL-8303) stably transfected with human FRα. HOS-143B was originally derived from a […] with osteosarcoma. The tumor cells were grown in folate-deficient RPMI 1640 with 5% FBS at 37° C. in a 5% CO2 humidified atmosphere. For the in-vivo study, tumor cells were inoculated subcutaneously at 1×10^6 cells per animal.
EGFRt-sorted anti-FITC E2 scFv-CAR T cells were frozen in a T-cell freezing medium. Upon arrival, vials of frozen CAR-T cells were immediately stored at −80° C. The CAR-T cells were quickly thawed at 37° C., washed twice with PBS, and used for animal injection at 6 million viable EGFRt+E2 CAR-T cells (CD4/CD8 at ~1:1) per animal. A small aliquot was taken on the day infusion for flow cytometric analysis of E2-CAR T-cell phenotypes.
EC17 dosing solutions were prepared when dosing began by weighing appropriate amounts of each compound, reconstituting in PBS, pH 7.4, sterile filtering the drug solution through a 0.22 pm PVDF syringe filter, and freezing aliquots for each day of dosing at −20° C.
All EC17 doses were given towards the end of day (3-4 PM) to allow potential CRS (cytokine release syndrome) to develop overnight.
Tumor growth, body weight, and overall assessment: Tumor sizes were monitored 2-3 times/week and body weight measured 2-3 times/week. On the days immediately after any EC17 dose, body weight measurement was taken daily and attention was given to gross animal morphology and behavior.
Euthanasia: Euthanasia was performed when mice had lost ≥20% of their weight, when tumors reached ≥1500 mm^3. Euthanasia was also performed if mice lost a lot of weight in a short duration (e.g., due to severe head-tilt), or when they approached moribund conditions per CRS grading system.
All animal care and use were performed according to NIH guidelines and in compliance with protocols approved by the Purdue University Animal Use and Care Committee. Female 4 to 5-week-old NOD/SCID gamma (NSG™) mice (stock number:005557) were purchased from The Jackson Faboratory (Bar Harbor, ME). Unless specifically indicated, all animals were maintained on a FA-deficient diet (TestDiet, St. Fouis, MO) upon arrival and throughout the study. To establish subcutaneous xenografts, MDA-MB-231 and HOS-FRα were implanted in the right flank region at 2.5×10^6 and 1×10^6 cells per animal, respectively. For intravenous xenografts, THP1-FRβ) cells were inoculated at 5×10^6 cells per animal. Subcutaneous tumors were measured 2-3 times per week with a caliper and calculated using the ellipsoidal formula (length×width2)/2. […] All animal doses (CAR-T cells, EC17, sodium fluorescein) were given intravenously.
In a therapeutic setting, EC17 CAM can be given before or after CAR-T cell injection. […]

[1] = EC17 dose finding and CRS assessment in tumor-free mice; type: in vivo, NSG mice
Excerpt: For MDA-MB-231 studies, mice received a high dose (~10 million) of a “clinical facsimile” of E2-CAR-T cells (~39% EGFRt+) with a low differentiation profile (FIG. 9). Two days later, 3 different treatment regimens of EC17 were started at an average tumor size of −293±39 mm^3 (FIG. 12). The EC17 dosing was given once-a-week (SIW) at 500 nmol/kg on Mondays, or as escalating doses of 5, 50 or 100, and 500 or 1000 nmol/kg (i.e., 5/50/500 or 5/100/1000) on Monday, Thursday, and Monday with a 6-day break in-between cycles. Control mice were left untreated (received CAR-T cells but no EC17). For comparison, a cohort of tumor-free littermates also received the same number of CAR-T cells without or with EC17 SIW at 500 nmol/kg.
The initial EC17 dose finding studies were conducted in MDA-MB-231 tumor bearing mice as shown by the schematic diagram of the experimental layout (FIG. 12, panel A). NSG mice without or with MDA-MB-231 tumors (~211±65 mm3) were engrafted on day 0 with −10 million of a “clinical facsimile” batch of E2-CAR-T cells (−39% EGFRt+, 51:49 CD4/CD8). This batch of CAR-T cells consisted of mostly TSCM and TCM phenotypes (see FIG. 9). Two days after the CAR-T cell injection, one cohort of tumor-bearing mice were left untreated while three cohorts were treated with different regimens of EC17, including single injection per week (SIW) at 500 nmol/kg, or as escalating EC17 dose levels of 5/50/500 (Escalation-1) or 5/100/1000 nmol/kg (Escalation-2) given on a Monday/Thursday/Monday schedule with 1-week drug-free intervals. For comparison, two tumor-free cohorts were either untreated or treated with EC17 SIW at 500 nmol/kg.

[2] = cited from earlier work
[3] = E2 CAR-T cells + EC17 5/100/1000 nmol/kg, M/Th/M (Cohort 2)

NC1=NC2N=CC(CNc3ccc(C(=O)N[C@@H](CCC(=O)NCCNC(=S)Nc4ccc(-c5c6ccc(=O)cc-6oc6cc(O)ccc56)c(C(=O)O)c4)C(=O)O)cc3)=NC2C(=O)N1 (stereo partly drawn) [EC17, FA-(γ)-ethylenediamine-FITC]
body weight loss or CRS (HOS-FRα tumors; [3]): without body weight loss or CRS | tumor volume of HOS-FRα tumors (HOS-FRα tumors; [3]): significant tumor regression | CAR-T cell expansion in whole blood (flow cytometry) (HOS-FRα tumors; EC17 dose escalation M/Th/M, at euthanasia days 33 and 47): EC17-dependent CAR-T cell expansion up to day 47 but higher on day 33 | CRS or body weight loss (HOS-FRα tumors; ~6 million E2-CAR-T cells + EC17 5/10/100, 5/30/300, 5/50/500 nmol/kg in Cycles 1-3, M/Th/M): no CRS or body weight loss | HOS-FRα tumor growth (HOS-FRα tumors; ~6 million E2-CAR-T cells + EC17 5/10/100, 5/30/300, 5/50/500 nmol/kg in Cycles 1-3, M/Th/M, 6-day break): significant delay in tumor growth within the first two cycles of treatment; also recorded: stopped responding to treatment in Cycle 3 | CAR-T cell expansion by flow cytometry ([1]; tumor-free cohorts): no CAR-T cell expansion was detected | body weight loss ([1]; tumor-free mice, CAR-T cells + two weekly doses of EC17 at 500 nmol/kg): no CRS symptoms (grade 0 out of a 0-5 scale) or body weight loss | IFNγ in plasma ([1]; tumor-free, CAR-T cells plus EC17, days 11 and 12): low levels of IFNγ were detected | Maximum Tolerated Dose (MTD) ([2]; EC17 doses of 3.1×10^−2 and 2.76×10^−1 mg/kg in previously-conducted human studies): not reached | subjects with mild hypersensitivity reaction (most common adverse event) ([2]; intravenous, single agent, 84 subjects): 10.7% | overall tolerability ([2]; intravenous, single agent): well tolerated | serious adverse events ([2]; intravenous, single agent): No serious adverse events were reported
